Measured values from patent US20170281727A1, “THERAPEUTIC OR PROPHYLACTIC AGENT FOR ITCHING SKIN DISEASES” (Toray Industries, Inc., priority 2014, published 2017).
Entries after “also recorded” stand apart in the source; their conditions may differ.

Key:
Format in all cases: cell-based, human
Sema3A [1] = experiment: mRNA expression analysis of Sema3A by real-time PCR in NHEKs; settings: LL-37 20 μg/ml, 48 hours after stimulation, vs control without LL-37
Description: (§1) Normal human epidermal keratinocytes (NHEKs) were cultured according to a protocol provided by Lonza. NHEKs were cultured in a 12-well tissue culture plate and, in the growth phase (80% confluence), LL-37 (20 μg/ml) was added alone, or LL-37 (20 μg/ml) and the peptide SLIGRL (SEQ ID NO:2, 100 μM) were added, to the cells. The peptide SLIGRL is a peptide frequently used as a PAR2 agonist, and it is known that activation of PAR2 induces promotion of expression of TSLP in keratinocytes (Wilson et al, Cell, 2013: 155, 285-295). Total RNA was extracted 48 hours after the addition of LL-37, and mRNA expression analysis was carried out by real-time PCR. The culture supernatant was collected, and subjected to analysis of the protein expression level by ELISA. • (3) Analysis of Expression of mRNA of Each Gene
(§2) The transcription level of each gene was analyzed by quantitative real-time PCR. […] According to the manufacturer's instructions, quantitative real-time PCR was carried out using an Applied Biosystems 7900HT Fast Real-time PCR system (Applied Biosystems) with SYBR Premix Ex Taq (Takara). […] The amount of each mRNA was normalized against the amount of mRNA of RPS18, and finally expressed as the ratio to the mRNA in an untreated control.

NGF = experiment: mRNA expression analysis of NGF by real-time PCR in NHEKs; settings: LL-37 20 μg/ml, 48 hours after stimulation, vs control without LL-37
Description: as §1, §2

KAL1 = experiment: mRNA expression analysis of KAL1 by real-time PCR in NHEKs; settings: LL-37 20 μg/ml, 48 hours after stimulation, vs control without LL-37
Description: as §1, §2

Artemin = experiment: mRNA expression analysis of Artemin by real-time PCR in NHEKs; settings: LL-37 20 μg/ml, 48 hours after stimulation, vs control without LL-37
Description: as §1, §2

hBD-1 = experiment: mRNA expression analysis of hBD-1 by real-time PCR in NHEKs; settings: LL-37 20 μg/ml, 48 hours after stimulation, vs control without LL-37
Description: as §1, §2

hBD-2 = experiment: mRNA expression analysis of hBD-2 by real-time PCR in NHEKs; settings: LL-37 20 μg/ml, 48 hours after stimulation, vs control without LL-37
Description: as §1, §2

TSLP = experiment: mRNA expression analysis of TSLP by real-time PCR in NHEKs
Description: as §1, §2

Sema3A [2] = experiment: Sema3A protein in NHEK culture supernatant by ELISA; settings: NHEKs, LL-37 20 μg/ml, 48 hours after stimulation, vs control without LL-37
Description: as §1
The expression level of each protein was analyzed by ELISA. The amount of Sema3A in the culture supernatant was measured using an Enzyme-linked Immunosorbent Assay Kit (USCN Life Science) according to the manufacturer's instructions.

LL-37: human cathelicidin antimicrobial peptide, LLGDFFRKSKEKIGKEFKRIVQRIKDFLRNLVPRTES, SEQ ID NO:1 (listed as Homo sapiens)
mRNA expression of Sema3A (Sema3A [1]): promoted; also recorded: increases | mRNA expression of NGF (NGF): suppressed; also recorded: decreases | mRNA expression of KAL1 (KAL1): promoted; also recorded: increases | mRNA expression of Artemin (Artemin): suppressed; also recorded: decreases | mRNA expression of hBD-1 (hBD-1): Promotion; also recorded: increases | mRNA expression of hBD-2 (hBD-2): Promotion; also recorded: increases | mRNA expression of TSLP (TSLP; LL-37 20 μg/ml alone, 48 hours after stimulation, vs control without LL-37): Suppression; also recorded: decreases | mRNA expression of TSLP induced by SLIGRL (TSLP; LL-37 20 μg/ml plus SLIGRL 100 μM (PAR2 agonist), 48 hours): suppression; also recorded: decreased | amount of Sema3A protein in the culture supernatant (Sema3A [2]): increase
